According to US20090298786A1, “METHODS OF TREATING VIRAL INFECTIONS WITH ANTHRACYCLINE ANTIBIOTICS” (priority 2007, published 2009):
Where two headings read alike, the source gives them in different places.

Target: T1, HCV helicase (helicase domain of NS3 protein) (UniProt P27958)
T1 construct: The helicase domain of NS3 protein was expressed in a baculovirus system in HF insect cell line; fused on or other part: Histidine tag, inferred from the Talon cobalt column purification ('histidine repetitions')
Test: Fluorometric (FRET) antihelicase activity assay
Type: biochemical, hepatitis C virus (HCV)
Settings: concentration inhibiting 50% of helicase activity, 10 nM enzyme pre-incubated 15 min with derivative, unwinding at 30° C. for 60 min
Source text: A reaction takes place on a 96- or 384-well microtitration plate and a course of the reaction is observed in real time.
The helicase domain of NS3 protein was expressed in a baculovirus system in HF insect cell line.
In this assay, FAM fluorescence is quenched by fluorescence energy transfer (FRET) to the BHQ molecule, while unwinding of double-stranded DNA structure leads to decrease of FRET phenomenon and increase of FAM fluorescence signal. The assay allows for examining a large number of samples, i.e., different helicase inhibitors at various concentrations and with many repetitions, in standardized conditions. The reaction is conducted in a microtitration plate. The reaction process is observed in real time.
The enzyme (10 nM) was pre-incubated with the tested derivatives dissolved in DMSO (0.005 to 20 μM concentration) without ATP for 15 min at room temperature. The reaction of DNA unwinding was started by addition of ATP and was carried out at 30° C. for 60 min in a Synergy HTi (Biotek) fluorometer. […] Fluorescence was measured every 2 mins.
The enzyme activity was calculated as the initial reaction velocity from the linear part of reaction curve (fluorescence growth as a function of time) using a linear regression method. Inhibition was calculated as comparison of activity of the helicase incubated with inhibitor to activity of the helicase incubated without inhibitor, but with a proper concentration of DMSO, expressed in percent.

T1 sequence (P27958 1027-1657): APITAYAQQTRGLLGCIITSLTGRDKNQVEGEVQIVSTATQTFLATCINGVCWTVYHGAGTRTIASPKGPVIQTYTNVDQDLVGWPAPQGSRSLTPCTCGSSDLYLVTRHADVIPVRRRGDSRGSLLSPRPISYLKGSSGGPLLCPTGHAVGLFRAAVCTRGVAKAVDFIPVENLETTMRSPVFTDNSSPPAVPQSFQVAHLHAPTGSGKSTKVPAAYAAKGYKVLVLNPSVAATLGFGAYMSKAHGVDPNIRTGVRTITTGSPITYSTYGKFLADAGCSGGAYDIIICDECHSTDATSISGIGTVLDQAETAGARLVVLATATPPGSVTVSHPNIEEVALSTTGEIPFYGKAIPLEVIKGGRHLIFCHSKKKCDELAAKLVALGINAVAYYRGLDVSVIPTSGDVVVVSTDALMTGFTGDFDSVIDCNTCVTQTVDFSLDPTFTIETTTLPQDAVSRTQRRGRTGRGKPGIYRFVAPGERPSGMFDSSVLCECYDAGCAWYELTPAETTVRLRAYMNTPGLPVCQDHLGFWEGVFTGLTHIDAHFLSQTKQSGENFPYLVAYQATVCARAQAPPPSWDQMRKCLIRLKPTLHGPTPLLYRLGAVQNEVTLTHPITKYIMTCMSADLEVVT

Row | Structure (SMILES) | IC50 (read-out: IC50) [nM] | IC50 [nM]
1 | COc1cccc2c1C(=O)c1c(O)c3c(c(O)c1C2=O)CC(O)(C(=O)CO)CC3OC1CC(N=C(C)N2CCN(C)CC2)C(O)C(C)O1 (stereo not shown) [Derivative 59] | 420 | 
2 | CCN(C=NC1CC(OC2CC(O)(C(C)=O)Cc3c(O)c4c(c(O)c32)C(=O)c2c(OC)cccc2C4=O)OC(C)C1O)CC (stereo not shown) [Derivative 80] | 300 | 
3 | COc1cccc2c1C(=O)c1c(O)c3c(c(O)c1C2=O)CC(O)(C(=O)CO)CC3OC1CC(N=CN2CCOCC2)C(O)C(C)O1 (stereo not shown) [Derivative 37] | 2120 | 
4 | COc1cccc2c1C(=O)c1c(O)c3c(c(O)c1C2=O)CC(O)(C(C)=O)CC3OC1CC(N=C(C)N2CCCCC2)C(O)C(C)O1 (stereo not shown) [Derivative 91] | 30 | 
5 | COc1cccc2c1C(=O)c1c(O)c3c(c(O)c1C2=O)CC(O)(C(=O)CO)CC3OC1CC(N=CN2CCc3ccccc32)C(O)C(C)O1 (stereo not shown) [Derivative 114] | 140 | 
6 | COc1cccc2c1C(=O)c1c(O)c3c(c(O)c1C2=O)CC(O)(C(=O)CO)CC3OC1CC(N=C(C)N2CCCCC2)C(O)C(C)O1 (stereo not shown) [Derivative 56] | 3350 | 
7 | COc1cccc2c1C(=O)c1c(O)c3c(c(O)c1C2=O)CC(O)(C(=O)CO)CC3OC1CC(N=CN2CCCC2)C(O)C(C)O1 (stereo not shown) [Derivative 35] | 550 | 
8 | CCN(CC)C(C)=NC1CC(OC2CC(O)(C(=O)CO)Cc3c(O)c4c(c(O)c32)C(=O)c2c(OC)cccc2C4=O)OC(C)C1O (stereo not shown) [Derivative 135] | 1240 | 
9 | CCCCN(C=NC1CC(OC2CC(O)(C(C)=O)Cc3c(O)c4c(c(O)c32)C(=O)c2c(OC)cccc2C4=O)OC(C)C1O)CCCC (stereo not shown) [Derivative 84] | 2050 | 
10 | CCCN(C=NC1CC(OC2CC(O)(C(=O)CO)Cc3c(O)c4c(c(O)c32)C(=O)c2c(OC)cccc2C4=O)OC(C)C1O)CCC (stereo not shown) [Derivative 118] | 2210 | 
11 | COc1cccc2c1C(=O)c1c(O)c3c(c(O)c1C2=O)CC(O)(C(C)=O)CC3OC1CC(N=CN2CCCC2)C(O)C(C)O1 (stereo not shown) [Derivative 69] | 1080 | 
12 | COc1cccc2c1C(=O)c1c(O)c3c(c(O)c1C2=O)CC(O)(C(=O)CO)CC3OC1CC(N=C(C)N2CCN(C)CC2)C(O)C(C)O1 (stereo not shown) [Derivative 131] | 130 | 
13 | COc1cccc2c1C(=O)c1c(O)c3c(c(O)c1C2=O)CC(O)(C(C)=O)CC3OC1CC(N=CN2CCOCC2)C(O)C(C)O1 (stereo not shown) [Derivative 3] | 3170 | 
14 | CCN(CC)C(C)=NC1CC(OC2CC(O)(C(C)=O)Cc3c(O)c4c(c(O)c32)C(=O)c2c(OC)cccc2C4=O)OC(C)C1O (stereo not shown) [Derivative 98] | 180 | 
15 | COc1cccc2c1C(=O)c1c(O)c3c(c(O)c1C2=O)CC(O)(C(C)=O)CC3OC1CC(N=C(C)N2CCOCC2)C(O)C(C)O1 (stereo not shown) [Derivative 89] | 50 | 
16 | COc1cccc2c1C(=O)c1c(O)c3c(c(O)c1C2=O)CC(O)(C(C)=O)CC3OC1CC(N=C(C)N2CCN(C)CC2)C(O)C(C)O1 (stereo not shown) [Derivative 25] | 6250 | 
17 | COc1cccc2c1C(=O)c1c(O)c3c(c(O)c1C2=O)CC(O)(C(=O)CO)CC3OC1CC(N=CN2CCOCC2)C(O)C(C)O1 (stereo not shown) [Derivative 107] | 970 | 
18 | COc1cccc2c1C(=O)c1c(O)c3c(c(O)c1C2=O)CC(O)(C(C)=O)CC3OC1CC(N=CN2CCOCC2)C(O)C(C)O1 (stereo not shown) [Derivative 71] | 3130 | 
19 | COc1cccc2c1C(=O)c1c(O)c3c(c(O)c1C2=O)CC(O)(C(=O)CO)CC3OC1CC(N=CN2CCN(C)CC2)C(O)C(C)O1 (stereo not shown) [Derivative 42] | 980 | 
20 | CCN(C=NC1CC(OC2CC(O)(C(C)=O)Cc3c(O)c4c(c(O)c32)C(=O)c2c(OC)cccc2C4=O)OC(C)C1O)CC (stereo not shown) [Derivative 12] | 1580 | 
21 | COc1cccc2c1C(=O)c1c(O)c3c(c(O)c1C2=O)CC(O)(C(C)=O)CC3OC1CC(N=CN2CCCCC2)C(O)C(C)O1 (stereo not shown) [Derivative 73] | 2390 | 
22 | COc1cccc2c1C(=O)c1c(O)c3c(c(O)c1C2=O)CC(O)(C(C)=O)CC3OC1CC(N=CN2CCN(C)CC2)C(O)C(C)O1 (stereo not shown) [Derivative 8] | 1960 | 
23 | CCN(C=NC1CC(OC2CC(O)(C(=O)CO)Cc3c(O)c4c(c(O)c32)C(=O)c2c(OC)cccc2C4=O)OC(C)C1O)CC (stereo not shown) [Derivative 116] | 2170 | 

Row | Structure (SMILES) | IC50 (read-out: IC50) [nM] | IC50 [nM]
24 | COc1cccc2c1C(=O)c1c(O)c3c(c(O)c1C2=O)CC(O)(C(C)=O)CC3OC1CC(N=C(C)N2CCCCCC2)C(O)C(C)O1 (stereo not shown) [Derivative 93] | 990 | 
25 | COc1cccc2c1C(=O)c1c(O)c3c(c(O)c1C2=O)CC(O)(C(=O)CO)CC3OC1CC(N=C(C)N2CCCC2)C(O)C(C)O1 (stereo not shown) [Derivative 52] | 500 | 
26 | COc1cccc2c1C(=O)c1c(O)c3c(c(O)c1C2=O)CC(O)(C(C)=O)CC3OC1CC(N=CN2CCCCC2)C(O)C(C)O1 (stereo not shown) [Derivative 5] | 3500 | 
27 | COc1cccc2c1C(=O)c1c(O)c3c(c(O)c1C2=O)CC(O)(C(C)=O)CC3OC1CC(N=CN2CCN(C)CC2)C(O)C(C)O1 (stereo not shown) [Derivative 76] | 760 ± 210 | 770
28 | COc1cccc2c1C(=O)c1c(O)c3c(c(O)c1C2=O)CC(O)(C(C)=O)CC3OC1CC(N=C(C)N2CCc3ccccc32)C(O)C(C)O1 (stereo not shown) [Derivative 27] | 11300 | 
29 | COc1cccc2c1C(=O)c1c(O)c3c(c(O)c1C2=O)CC(O)(C(=O)CO)CC3OC1CC(N=C(C)N2CCCCC2)C(O)C(C)O1 (stereo not shown) [Derivative 127] | 220 | 
30 | COc1cccc2c1C(=O)c1c(O)c3c(c(O)c1C2=O)CC(O)(C(C)=O)CC3OC1CC(N=CN2CCCC2)C(O)C(C)O1 (stereo not shown) [Derivative 1] | 1840 | 
31 | COc1cccc2c1C(=O)c1c(O)c3c(c(O)c1C2=O)CC(O)(C(=O)CO)CC3OC1CC(N=C(C)N2CCCC2)C(O)C(C)O1 (stereo not shown) [Derivative 123] | 310 | 
32 | COc1cccc2c1C(=O)c1c(O)c3c(c(O)c1C2=O)CC(O)(C(=O)CO)CC3OC1CC(N=CN2CCCCC2)C(O)C(C)O1 (stereo not shown) [Derivative 39] | 2840 | 
33 | COc1cccc2c1C(=O)c1c(O)c3c(c(O)c1C2=O)CC(O)(C(=O)CO)CC3OC1CC(N=CN(C)C(C)c2ccccc2)C(O)C(C)O1 (stereo not shown) [Derivative 122] | 2530 | 
34 | COc1cccc2c1C(=O)c1c(O)c3c(c(O)c1C2=O)CC(O)(C(C)=O)CC3OC1CC(N=C(C)N2CCCC2)C(O)C(C)O1 (stereo not shown) [Derivative 18] | 410 | 
35 | COc1cccc2c1C(=O)c1c(O)c3c(c(O)c1C2=O)CC(O)(C(=O)CO)CC3OC1CC(N=CN2CCCCCC2)C(O)C(C)O1 (stereo not shown) [Derivative 41] | 1610 | 
36 | COc1cccc2c1C(=O)c1c(O)c3c(c(O)c1C2=O)CC(O)(C(=O)CO)CC3OC1CC(N=CN2CCCCCC2)C(O)C(C)O1 (stereo not shown) [Derivative 111] | 1720 | 
37 | COc1cccc2c1C(=O)c1c(O)c3c(c(O)c1C2=O)CC(O)(C(C)=O)CC3OC1CC(N=CN2CCc3ccccc32)C(O)C(C)O1 (stereo not shown) [Derivative 78] | 450 | 
38 | COc1cccc2c1C(=O)c1c(O)c3c(c(O)c1C2=O)CC(O)(C(=O)CO)CC3OC1CC(N=CN2CCCCC2)C(O)C(C)O1 (stereo not shown) [Derivative 109] | 760 | 
39 | CCN(C=NC1CC(OC2CC(O)(C(=O)CO)Cc3c(O)c4c(c(O)c32)C(=O)c2c(OC)cccc2C4=O)OC(C)C1O)CC (stereo not shown) [Derivative 46] | 1320 | 
40 | COc1cccc2c1C(=O)c1c(O)c3c(c(O)c1C2=O)CC(O)(C(C)=O)CC3OC1CC(N=C(C)N2CCN(C)CC2)C(O)C(C)O1 (stereo not shown) [Derivative 95] | 90 ± 10 | 
41 | COc1cccc2c1C(=O)c1c(O)c3c(c(O)c1C2=O)CC(O)(C(C)=O)CC3OC1CC(N=CN2CCN(C)CC2)C(O)C(C)O1 (stereo not shown) [Derivative 77] | 780 ± 180 | 
42 | COc1cccc2c1C(=O)c1c(O)c3c(c(O)c1C2=O)CC(O)(C(C)=O)CC3OC1CC(N=CN2CCCCCC2)C(O)C(C)O1 (stereo not shown) [Derivative 7] | 1330 | 
43 | COc1cccc2c1C(=O)c1c(O)c3c(c(O)c1C2=O)CC(O)(C(=O)CO)CC3OC1CC(N=CN2CCN(C)CC2)C(O)C(C)O1 (stereo not shown) [Derivative 112] | 1530 | 
44 | COc1cccc2c1C(=O)c1c(O)c3c(c(O)c1C2=O)CC(O)(C(C)=O)CC3OC1CC(N=C(C)N2CCCCC2)C(O)C(C)O1 (stereo not shown) [Derivative 22] | 700 | 
45 | CCCN(CCC)C(C)=NC1CC(OC2CC(O)(C(C)=O)Cc3c(O)c4c(c(O)c32)C(=O)c2c(OC)cccc2C4=O)OC(C)C1O (stereo not shown) [Derivative 100] | 1900 | 
